Test results reported in patent US8829028B2, “5-HT4 receptor antagonists for the treatment of heart failure” (Serodus AS, priority 2002, dated 2014).
“And” between values parts separate entries of the source, which are not always exact repeats. Equal values may be shown once. Where a name gives a salt, the structure may show the parent alone.

Legend:
[1] = tested on: papillary muscles from Chronic heart failure rats; assay: Inotropic and lusitropic response of isolated papillary muscles from post-MI Chronic heart failure rats (organ bath, 1 Hz); type: cell-based, rat; conditions: for RT (TR20−TPF), relaxation time / TPF (time to peak force) / TR20 (time to relaxation to 20% level): CHF, serotonin 10 μmol/l, then isoprenaline 100 μmol/l
Method: (§1) Male, Wistar rats (Mollegaard Breeding and Research Centre, Skensved, Denmark), weighing about 320 g were intubated and ventilated with 68% N2O, 29% O2 and 2-3% Isofluran (Abbot Laboratories, USA). An extensive myocardial infarction (MI) was induced by a proximal ligation of the left coronary artery. Six weeks later the rats were anaesthetized and ventilated on the respirator with 2.2% Isofluran. Left ventricular pressures were measured (Sjaastad et al., 2000, J. Appl. Physiol, 89: 1445-1454), and Chronic heart failure rats were included in the study if left ventricular end diastolic pressure (LVEDP) was >15 mm Hg. […] The sham-operated animals (SHAM) were subjected to the same surgical procedure but the coronary artery was not ligated.
(§2) Hearts were isolated from the anaesthetized animals (see above) and carefully dissected free of connective tissue and transferred to ice cold 0.9% NaCl and weighed. The aorta was cannulated, and the coronaries were perfused at 31° C. with a relaxing solution containing: (mmol/l) NaCl 118.3; KCl 3.0; CaCl2 0.5; MgSO4 4.0; KH2PO4 2.4; NaHCO3 24.9; glucose 10.0; mannitol 2.2 and equilibrated with 95% O2/5% CO2 at 31° C. (pH 7.4). Posterior left ventricular papillary muscle was ligated
(§3) The muscles were transported to a separate laboratory and mounted in organ baths. […] The papillary muscles were mounted in organ baths containing the relaxing solution and allowed to adapt at 31° C. for about 20 minutes before the solution was changed to one containing the following (in mmol/l): NaCl 119.2; KCJ 3.0; CaCl2 2.0; MgSO4 1.2; KH2PO4 2.4; NaHCO3 24.9; glucose 10.0; mannitol 2.22 and equilibrated with 95% O2/5% CO2 at 31° C. (pH 7.4).
(§4) The muscles were field stimulated with alternating polarity at 1 Hz with impulses of 5 msec duration and current about 20% above individual threshold (10-15 mA, determined in each experiment). The isometrically contracting muscles were stretched to the maximum of their length-tension curve. The force was recorded and analysed as previously described (Skomedal et al., 1997, J. Pharmacol. Exp. Ther. 280: 721-729). The muscles were allowed to equilibrate for 90 minutes. […] Averaged contraction-relaxation cycles (CRC) were calculated for different experimental periods, and these cycles were used to determine descriptive parameters like maximal development of force (dF/dt)max, time to peak force (TPF) and time to relaxation to 20% level (TR2O). Relaxation time (RT) was calculated as TR2O-TPF. (dF/dt)max was used as an index of contractility. Inotropic responses induced by agonists were expressed by increase in (dF/dt)max. RT was used as index of relaxation. Lusitropic responses were expressed as reduction in RT. Mechanical response at the end of the equilibrium period was used as the control response.
(§5) Agonist was added cumulatively or as a single bolus directly to the organ baths and was completely mixed in the solution within 2-3 seconds. […] The different agonists were added directly to the organ baths in increasing concentrations until supramaximal concentrations of agonist were obtained with respect to maximal inotropic response.
(§6) The responses for each concentration of agonist were generally calculated as percent of maximal response. The concentration-response curves constructed from papillary muscle experiment were constructed according to Ariens and Simonis (1964, supra), by estimating centiles (EC10 to EC100) for each single experiment and calculating the corresponding means. This calculation provides mean curves that express the response as fractional response or percent of maximum and display horizontal positioning and the correct mean slope of the curves. The horizontal positioning of the concentration-response curves was expressed as pEC50-values (=−log EC50).

5-HT4 receptor [2] = biological target: T1, 5-HT4 receptor (Rattus norvegicus, UniProt Q62758); assay: Antagonism of the serotonin inotropic response by 5-HT4 antagonists in post-MI rat papillary muscle (reversal, curve shift, Schild Kb); type: cell-based; conditions: for block of the inotropic response to serotonin: each antagonist added as printed
T1 construct: The papillary muscles were mounted in organ baths; from tissue; host or cells: rat posterior left ventricular papillary muscle (post-MI or aortic-banding heart failure)
Method: as §4, §5
as §6, with “EC50). Data are expressed as mean±standard error of the mean (SEM) and the number of animals expressed as n. The significance levels of differences were calculated according to Students t-test. P<0.05 is considered statistically significant. The inhibition constants Kb were calculated from the Schild equation, based on the relative shifts of the concentration-response curves for receptor stimulation.” for “EC50).”

[3] = tested on: papillary muscles from sham-operated rats; assay: Inotropic and lusitropic response of isolated papillary muscles from sham-operated rats; type: cell-based, rat; conditions: for RT (TR20−TPF), relaxation time / TPF (time to peak force) / TR20 (time to relaxation to 20% level): Sham, N=6, serotonin 10 μmol/l, then isoprenaline 100 μmol/l
Method: as §1, §2, §3, §4, §5, §6

[4] = tested on: papillary muscles from MInf rats; assay: Inotropic response to serotonin in papillary muscles from MInf rats (infarction without CHF); type: cell-based, rat; conditions: serotonin 10 μM
Description: The magnitude of the response correlated positively with infarction size up to 30-40% of the inner myocardial surface in MInf animals (FIG. 8A). In MInf hearts with infarct size 30-40% the inotropic effect was of the same magnitude as in CHF hearts which all had infarct size >40%. A positive correlation with infarction size was also observed for 5-HT4(b) and ANP mRNA expression, whereas 5-HT2A mRNA levels were unchanged (FIG. 8B).

5-HT4 receptor [5] = biological target: T1, 5-HT4 receptor; assay: 5-HT4 receptor-mediated inotropic response in papillary muscle of CHF rat 6 weeks after aortic banding; type: cell-based; conditions: serotonin 10 μM; prazosin, timolol, atropine 1 μM each
Method: Trans-aortic constriction (aortic banding) of the ascending aorta was induced in 200 g male Wistar rats under anaesthesia, induced by 63% N2O, 32% O2 and 5% Isoflurane and maintained by 66% N2O, 33% O2 and 1-2% Isoflurane. A right-sided thoracotomi was performed through a 3-4 cm long cutaneous incision, the pericardium was opened and the ascending aorta identified and dissected free of surrounding tissue. A ligature was knit around the ascending aorta and a metal probe with diameter 0.9 mm. The metal probe was then removed. The result was a constriction of the ascending aorta with internal diameter about 0.9 mm. The thorax was then closed with 3-0 silk sutures and the skin closed with Dexon 1 sutures. […]
Papillary muscle was extracted from a CHF rat 6 weeks after aortic banding as described above. osterior left ventricular papillary muscle was prepared, mounted in organ bath, equilibrated and field stimulated at 1 Hz (Sjaastad et al. 2003 supra), and the contraction-relaxation cycles (CRCs) were recorded and analysed as previously described (Skomedal et al. 1997, J. Pharmacol Exp Ther 280: 721-729) (Sjaastad et al., 2003, supra) with respect to maximal developed force (Fmax), maximal development of force (dF/dt)max, time to peak force (TPF), time to relaxation to 20% level (TR20) and relaxation time (RT=TR20-TPF).

[6] = tested on: post-infarction congestive heart failure (CHF) rats; assay: Six-week treatment of post-infarction CHF rats with a 5-HT4 antagonist, papillary muscle function afterwards; type: in vivo, rat; conditions: 50 mM SB207266 in s.c. miniosmotic pumps, six weeks
Description: An extensive myocardial infarction (MI) was induced in 320 g male Wistar rats under anaesthesia (68% N2O, 29% O2 and 2-3% Isofluran) by a proximal ligation of the left coronary artery (Sjaastad et al. 2003, supra). Three days later, rats were included in the study if the rats had both clinical signs of congestive heart failure (tachypnoe and forced ventilation) and a large myocardial infarction as verified by echocardiography. Rats included in the study were randomized blindly to placebo or treatment. […]
After six weeks of treatment, the animals were again placed under Isofluran anaesthesia (68% N2O, 29% O2 and 2-3% Isofluran) with temperature control for echocardiographic and hemodynamic measurements, followed by euthanasia. Posterior left ventricular papillary muscles were then prepared, mounted in organ baths, equilibrated and field stimulated at 1 Hz (Sjaastad et al., 2003 supra) and the contraction-relaxation cycles (CRCs) were recorded and analysed as previously described with respect to maximal developed force (Fmax), maximal development of force (dF/dt)max, time to peak force (TPF), time to relaxation to 20% level (TR20) and relaxation time (RT=TR20-TPF). […]

[7] = tested on: 5-HT2A receptor (Rattus norvegicus); conditions: ketanserin 0.1 μmol/l
Method: as §4, with “RT was used as index of relaxation.” left out, “Mechanical response at the end of the equilibrium period was used as the control response.” left out
The responses for each concentration of agonist were generally calculated as percent of maximal response. […] The horizontal positioning of the concentration-response curves was expressed as pEC50-values (=−log EC50). Data are expressed as mean±standard error of the mean (SEM) and the number of animals expressed as n. The significance levels of differences were calculated according to Students t-test. […]

T1 sequence (Q62758 whole entry): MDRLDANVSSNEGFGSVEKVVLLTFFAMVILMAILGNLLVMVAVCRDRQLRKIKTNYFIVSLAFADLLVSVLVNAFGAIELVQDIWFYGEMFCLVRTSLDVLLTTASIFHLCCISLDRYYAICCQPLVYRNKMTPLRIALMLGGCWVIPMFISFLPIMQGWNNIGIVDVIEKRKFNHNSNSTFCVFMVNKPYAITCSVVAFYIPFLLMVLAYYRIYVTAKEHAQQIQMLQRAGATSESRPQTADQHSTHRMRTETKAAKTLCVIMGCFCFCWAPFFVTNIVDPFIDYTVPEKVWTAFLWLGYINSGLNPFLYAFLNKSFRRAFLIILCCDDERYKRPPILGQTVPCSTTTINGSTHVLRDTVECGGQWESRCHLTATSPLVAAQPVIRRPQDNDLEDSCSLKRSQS
5-HT2A receptor (Rattus norvegicus), sequence (Q62758 whole entry): as above

## CN1[C@@H]2CC[C@H]1CC(OC(=O)C(CO)c1ccccc1)C2.CN1[C@@H]2CC[C@H]1CC(OC(=O)C(CO)c1ccccc1)C2.O=S(=O)(O)O (stereo partly shown) [Atropine, atropine sulfate]
[1]; 1 μmol/l atropine after serotonin and carbachol, p>0.06 vs serotonin alone
  inotropic response to serotonin restored by atropine: 45.1±5.1%
[1]; cumulative 10 μmol/l serotonin, 30 μmol/l carbachol, 1 μmol/l atropine
  effect on serotonin-induced changes of TPF, TR2O and RT (contraction-relaxation cycle characteristics): re-established the contraction-relaxation cycle characteristics

## COc1cc(COc2cc(N)c(Cl)cc2C(=O)CCC2CCN(CCNS(C)(=O)=O)CC2)cc(OC)c1 [RS39604, 1-[4-amino-5-chloro-2-(3,5-dimethoxybenzyloxy)phenyl]-3 [1-[2-[(methylsulf-onyl)amino]ethyl]-4-piperidinyl]-1-propanone hydrochloride]
5-HT4 receptor [2]; 6 week post MI rats, 5 nM antagonist, read-out: pKb (converted)
  Kb: 631 pM
5-HT4 receptor [2]; 6 week post MI rats
  block of the inotropic response to serotonin: block the inotropic response to serotonin

## Cl.NCCc1c[nH]c2ccc(O)cc12 [serotonin, 5-hydroxytryptamine hydrochloride]
[1]; 10 μmol/l serotonin, SEM, n=10
  increase in contractile force: 44.5±2.9%
[1]; 10 μmol/l serotonin, carbachol experiment, mean±SEM, n=5
  positive inotropic response above control level: 33.7±6.6%
[1]; 10 μmol/l serotonin, prazosin, atropine and timolol present
  time from addition of serotonin to maximal inotropic response: 1 to 2 min
[3]; 10 μmol/l serotonin, sham-operated animals, n=6
  positive inotropic response to serotonin: not seen in sham-operated animals
5-HT4 receptor [2]; pooled average with and without GR113808, SEM, n=12
  maximum inotropic response induced by serotonin: 18.7±2.4%
[4]
  inotropic response to serotonin: elicited an inotropic response qualitatively similar to the response observed in CHF animals
5-HT4 receptor [5]
  inotropic response to serotonin: positive inotropic response comparable in magnitude and characteristics to the positive inotropic response to 100 μM isoproterenol

## C[N+](C)(C)CCOC(N)=O [Carbachol, carbamylcholine]
[1]; 30 μmol/l carbachol added after 10 μmol/l serotonin, p<0.01
  inotropic response to serotonin after carbachol (reversal): 4.8±6.5%

## O=C(OCCN1CCCCC1)c1c[nH]c2ccccc12 [SB203186, 1-piperidinyl-ethyl-1H-indole-3-carboxylate]
5-HT4 receptor [2]; 6 week post MI rats, 5 nM antagonist
  pKb: 9.1
5-HT4 receptor [2]; 6 week post MI rats
  block of the inotropic response to serotonin: block the inotropic response to serotonin

## CCCCN1CCC(CNC(=O)c2c3n(c4ccccc24)CCCO3)CC1 [SB207266, N-[(1-butyl-4-piperidinyl)methyl]-3,4-dihydro-2H-[1,3]oxazino[3,2-a]indole-locarboxamide hydrochloride]
[6]; vs placebo
  maximal inotropic response to β-adrenoceptor stimulation (myocardial function): trend towards normalisation
[6]; preliminary data, not shown
  duration of the contraction-relaxation cycle: trend towards normalisation

## O=C(c1ccc(F)cc1)C1CCN(CCn2c(=O)[nH]c3ccccc3c2=O)CC1 [Ketanserin, 3-[2-[4-(4-fluorobenzoyl)-1-piperidinyl]ethyl]-2,4(1H,3H)-quinazolinedione]
[7]
  shift of the concentration-response curve for serotonin: did not shift

## CC(C)NC[C@H](O)c1ccc(O)c(O)c1 [isoprenaline, (−)-isoprenaline hemisulphate]
[1]; 10 μmol/l isoprenaline as printed, SEM, n=10
  inotropic effect (increase in contractile force): 60.4±5.8% and 58.5±7%
[1]; n=10, listed as ISO
  RT (TR20−TPF), relaxation time: 81.0 ± 1.8 ms
  TPF (time to peak force): 123.1 ± 1.6 ms
  TR20 (time to relaxation to 20% level): 204.1 ± 2.9 ms
[1]; n=10, listed as Iso
  RT (TR20−TPF), relaxation time: 76.2 ± 1.8 % of control
  TPF (time to peak force): 83.2 ± 1.7 % of control
  TR20 (time to relaxation to 20% level): 80.3 ± 1.9 % of control
[3]; listed as ISO
  RT (TR20−TPF), relaxation time: 75.0 ± 2.5 ms
  TPF (time to peak force): 109.3 ± 2.7 ms
  TR20 (time to relaxation to 20% level): 174.0 ± 4.9 ms
[3]; listed as Iso
  RT (TR20−TPF), relaxation time: 69.4 ± 3.2 % of control
  TPF (time to peak force): 87.4 ± 2.3 % of control
  TR20 (time to relaxation to 20% level): 74.5 ± 1.7 % of control
[3]; isoprenaline, sham-operated animals, mean±SEM, n=6
  positive inotropic response: 111.6±8.6%
